In patent US20040121947A1, “Compounds which inhibit beta-secretase activity and methods of use thereof” (Oklahoma Medical Research Foundation, priority 2000, published 2004):
Where two headings read alike, the source gives them in different places. *1 amine or outer side, *2 acyl side, *3 side chain or, on linkers, in order; H or OH if unused. Where a SMILES comes first, the peptide text is derived from it. [ ]: non-standard residue; d: D form. LeuΨ(S-CHOHCH2)Ala = CC(C)C[C@H](N[*:1])[C@@H](O)C[C@@H](C)C(=O)[*:2]

How the values were obtained:
memapsin 2 = target: T1, memapsin 2 (Homo sapiens, UniProt P56817); test: Inhibition of memapsin 2 proteolytic activity, fluorogenic substrate FS-2; type: biochemical; details: for % Inhibition Mep2: enzyme concentration equals the compound concentration; for % Inh (M1/M2): ratio of % inhibition memapsin 1 / memapsin 2, 1 or less = greater inhibition of memapsin 2; for Vi/Vo: ratio of initial cleavage velocities of FS-2 with/without compound, enzyme and inhibitor concentrations equal (e.g., about 80 nM, 100 nM)
T1 construct: pET-11 vector-derived residues 1-15 of promemapsin 2-T1 (N, cleaved yes); made in house; host or cells: E. coli
Procedure, shortened: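 Spontaneously activated memapsin 2 (80 nM final) equilibrated with inhibitor (about 10 nM–10 μM) in 0.1 M NaOAc pH 4.0 with 10% DMSO for 20 min at 37 °C, with fluorogenic substrate FS-2. Ki converted from Ki apparent using substrate concentration and Km.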

memapsin 1 = target: T2, memapsin 1 (Homo sapiens, UniProt Q9Y5Z0); test: Inhibition of memapsin 1 proteolytic activity, fluorogenic substrate FS-2; type: biochemical; details: for Ki: Table 9, read-out: Ki apparent Mep1; for % Inhibition Mep1: enzyme concentration equals the compound concentration
T2 construct: pET-11 vector-derived residues 1-14 of promemapsin 1-T1 (N, cleaved yes); made in house; host or cells: E. coli
T2 sequence (Q9Y5Z0 63-466 limits assumed): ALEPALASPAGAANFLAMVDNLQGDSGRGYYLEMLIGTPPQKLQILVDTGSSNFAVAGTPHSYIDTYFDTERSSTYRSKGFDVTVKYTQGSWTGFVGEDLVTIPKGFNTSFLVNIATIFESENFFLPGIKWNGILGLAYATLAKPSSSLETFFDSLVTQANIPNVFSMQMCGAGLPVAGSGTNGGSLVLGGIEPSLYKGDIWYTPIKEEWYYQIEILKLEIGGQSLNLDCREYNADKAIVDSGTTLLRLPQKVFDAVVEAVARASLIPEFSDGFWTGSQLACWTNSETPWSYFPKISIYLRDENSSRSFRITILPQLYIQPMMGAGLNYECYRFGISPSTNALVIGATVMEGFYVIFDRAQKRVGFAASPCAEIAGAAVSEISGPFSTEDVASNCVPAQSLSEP
Procedure: Vi/Vo depicts the ratio of initial cleavage velocities of the substrate FS-2 (Ermolieff, et al., Biochemistry […]:12450-12456 (2000)) by memapsin 1 or memapsin 2 in the absence (Vo) or presence (Vi) of a compound of the invention. […] The Vi/Vo values depicted in Table 1 were determined at conditions under which the enzyme and inhibitor concentrations were equal (e.g., about 80 nM, 100 nM).
The relationship of Ki (independent of substrate concentration) to Kiapp is a function of substrate concentration in the assay and the Km for cleavage of the substrate by either memapsin 1 or memapsin 2 by the relationship:
An aliquot of the inhibitor of known concentration in DMSO was diluted into 1.8 ml 0.1 M NaOAc, pH 4.0. DMSO and added to a final concentration of 10% (v/v), and memapsin 2 (final concentration of 80 nM), followed by a 20 minute equilibration at 37° C. Compounds were evaluated for the ability to inhibit memapsin 1 and memapsin 2 at concentrations between about 10 nM and about 10 μm of inhibitor.
The relationship of Ki (independent of substrate concentration) to Kiapp is a function of substrate concentration in the assay and the Km for cleavage of the substrate by either memapsin 1 or memapsin 2 by the relationship: […]

[1] = Table 9, read-out: Ki apparent Mep2
[2] = memapsin 2, apparent Ki in presence of substrate FS-2, read-out: Ki app
[3] = memapsin 2, independent of substrate, converted from Ki apparent, read-out: Ki
[4] = Ki, [I] < 100, memapsin 2, [I] < 100 (nM)

T1 sequence (P56817 41-454 limits assumed): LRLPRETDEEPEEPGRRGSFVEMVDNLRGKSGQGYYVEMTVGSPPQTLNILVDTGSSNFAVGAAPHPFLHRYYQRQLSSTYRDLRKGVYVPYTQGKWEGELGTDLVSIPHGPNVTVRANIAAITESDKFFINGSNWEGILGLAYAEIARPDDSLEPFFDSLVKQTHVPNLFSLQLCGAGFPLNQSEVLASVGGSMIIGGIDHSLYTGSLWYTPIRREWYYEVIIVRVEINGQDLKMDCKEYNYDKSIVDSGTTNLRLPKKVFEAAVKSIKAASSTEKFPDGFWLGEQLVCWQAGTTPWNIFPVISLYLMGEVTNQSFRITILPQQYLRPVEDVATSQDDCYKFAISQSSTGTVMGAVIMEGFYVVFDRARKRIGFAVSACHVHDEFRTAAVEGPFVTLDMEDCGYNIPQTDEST

SMILES | Ki (memapsin 2; [2]) [nM] | Ki (memapsin 2; [3]) [nM] | further results
CSCC[C@H](NC(=O)[C@@H](NC(=O)OC(C)(C)C)C(C)C)C(=O)N[C@@H](CC(C)C)[C@@H](O)C[C@@H](C)C(=O)N[C@H](C(=O)NCc1ccccc1)C(C)C [MMI-017] | 3.9 | 2.4 | Ki (memapsin 2; [1]): 3.9 nM; Ki (memapsin 1): 1.2 nM
CC(C)C[C@H](NC(=O)[C@H](CCS(C)(=O)=O)NC(=O)[C@@H](NC(=O)OC(C)(C)C)C(C)C)[C@@H](O)C[C@@H](C)C(=O)N[C@@H](C(=O)NCc1ccccc1)[C@@H](C)O [MMI-073] | – | – | % Inhibition Mep2 (memapsin 2): 52%; % Inh (M1/M2) (memapsin 2): 0.73; Vi/Vo (memapsin 2): 0.48; % Inhibition Mep1 (memapsin 1): 38%
CSCC[C@H](NC(=O)[C@@H](NC(=O)OC(C)(C)C)C(C)C)C(=O)N[C@@H](CC(C)C)[C@@H](O)C[C@@H](CO)C(=O)N[C@H](C(=O)NCc1ccccc1)C(C)C [MMI-078] | – | – | % Inhibition Mep2 (memapsin 2; listed as 78): 37%; % Inh (M1/M2) (memapsin 2; listed as 78): 0.76; Vi/Vo (memapsin 2): 0.63; % Inhibition Mep1 (memapsin 1; listed as 78): 28%
Cc1cc(C)n(COC(=O)N[C@@H](CCS(C)(=O)=O)C(=O)N[C@@H](CC(C)C)[C@@H](O)C[C@@H](C)C(=O)N[C@H](C(=O)NCc2ccccc2)C(C)C)n1 [MMI-139] | – | – | % Inhibition Mep2 (memapsin 2): 50%; % Inh (M1/M2) (memapsin 2): 0; Vi/Vo (memapsin 2): 0.5; % Inhibition Mep1 (memapsin 1): 0%
CSCC[C@H](NC(=O)OCn1nc(C)cc1C)C(=O)N[C@@H](CC(C)C)[C@@H](O)C[C@@H](C)C(=O)N[C@H](C(=O)NCC(C)C)C(C)C [MMI-156] | 3.03 | 1.89 | % Inhibition Mep2 (memapsin 2): 68%; % Inh (M1/M2) (memapsin 2): 0.47; Vi/Vo (memapsin 2): 0.32; % Inhibition Mep1 (memapsin 1): 32%
COc1ccc(C(=O)N[C@@H](CCSC)C(=O)N[C@@H](CC(C)C)[C@@H](O)C[C@@H](C)C(=O)N[C@@H](CC(C)C)C(=O)NC(C)C)cc1 [MMI-208] | 1950 | 1220 | Ki (memapsin 2; [4]): 407 nM
CSCC[C@H](NC(=O)c1cccc(C)c1C)C(=O)N[C@@H](CC(C)C)[C@@H](O)C[C@@H](C)C(=O)N[C@@H](CC(C)C)C(=O)NC(C)C [MMI-210] | 899 | 562 | –
CSCC[C@H](NC(=O)OCn1nc(C)cc1C)C(=O)N[C@@H](CC(C)C)[C@@H](O)C[C@@H](C)C(=O)N[C@H](C(=O)NCc1ccco1)C(C)C [MMI-212] | 71.1 | 44.5 | –
CSCC[C@H](NC(=O)CCn1nc(C)cc1C)C(=O)N[C@@H](CC(C)C)[C@@H](O)C[C@@H](C)C(=O)N[C@H](C(=O)NCc1ccco1)C(C)C [MMI-213] | 84.6 | 52.9 | –
CC(C)C[C@H](NC(=O)OC(C)(C)C)C(=O)N[C@@H](CC1CCCO1)C(=O)N[C@@H](CC(C)C)[C@@H](O)C[C@@H](C)C(=O)N[C@@H](CC(C)C)C(=O)NC(C)C (stereo partly shown) [MMI-215] | 30.9 | 19.3 | –
CSCC[C@H](NC(=O)OCn1nc(C)cc1C)C(=O)N[C@@H](CC(C)C)[C@@H](O)C[C@@H](C)C(=O)N[C@@H](CC(C)C)C(=O)N1CCN(C)CC1 [MMI-216] | 1200 | 753 | –
CSCC[C@H](NC(=O)OCn1nc(C)cc1C)C(=O)N[C@@H](CC(C)C)[C@@H](O)C[C@@H](C)C(=O)N[C@H](C(=O)N1CCN(C)CC1)C(C)C [MMI-217] | 1070 | 670 | –
CCCCNC(=O)[C@@H](NC(=O)C(C)(C)C[C@H](O)[C@H](CC(C)C)NC(=O)[C@H](CCSC)NC(=O)OCn1nc(C)cc1C)C(C)C [MMI-218] | 1800 | 1120 | Ki (memapsin 2; [4]): 226 nM
CSCC[C@H](NC(=O)OCCn1nc(C)c2c1CCC2)C(=O)N[C@@H](CC(C)C)[C@@H](O)C[C@@H](C)C(=O)N[C@@H](CC(C)C)C(=O)NC(C)C [MMI-220] | 4490 | 2810 | –
CSCC[C@H](NC(=O)OCCn1nc(C)c2c1CSC2)C(=O)N[C@@H](CC(C)C)[C@@H](O)C[C@@H](C)C(=O)N[C@@H](CC(C)C)C(=O)NC(C)C [MMI-221] | 1910 | 1190 | –
CSCC[C@H](NC(=O)OCCn1nc(C)c2c1CS(=O)(=O)C2)C(=O)N[C@@H](CC(C)C)[C@@H](O)C[C@@H](C)C(=O)N[C@@H](CC(C)C)C(=O)NC(C)C [MMI-222] | 2450 | 1530 | –
Cc1cc(C)n(CCOC(=O)N[C@@H](CCN2CCOCC2)C(=O)N[C@@H](CC(C)C)[C@@H](O)C[C@@H](C)C(=O)N[C@@H](CC(C)C)C(=O)NC(C)C)n1 [MMI-223] | 8420 | 5280 | –
CSCC[C@H](NC(=O)OCn1nc(C)cc1C)C(=O)N[C@@H](CC(C)C)[C@@H](O)C[C@@H](C)C(=O)N[C@@H](CC(C)C)C(=O)NC(C)C [MMI-224] | 70 | 43.8 | –
CSCC[C@H](NC(=O)C(C)Cn1nc(C)cc1C)C(=O)N[C@@H](CC(C)C)[C@@H](O)C[C@@H](C)C(=O)N[C@@H](CC(C)C)C(=O)NCc1ccco1 (stereo partly shown) [MMI-226] | 110 | 68.9 | –
CSCC[C@H](NC(=O)O[C@H]1CCOC1)C(=O)N[C@@H](CC(C)C)[C@@H](O)C[C@@H](C)C(=O)N[C@@H](CC(C)C)C(=O)NC(C)C [MMI-227] | 721 | 452 | –
COCC[C@H](NC(=O)C(Cn1nc(C)cc1C)C(C)C)C(=O)N[C@@H](CC(C)C)[C@@H](O)C[C@@H](C)C(=O)N[C@H](C(=O)NCC(C)C)C(C)C (stereo partly shown) [MMI-228] | 176 | 110 | –
CC(C)C[C@H](NC(=O)[C@H](CC(N)=O)NC(=O)[C@@H](N)C(C)C)[C@@H](O)C[C@@H](C)C(=O)N[C@@H](C)C(=O)N[C@@H](CCC(=O)O)C(=O)O [OM01-1] (H-VN[LeuΨ(S-CHOHCH2)Ala]AE-OH) | – | – | Ki (memapsin 2; memapsin 2, read-out: Ki): 126 nM

Second part, led by results:

Ki (memapsin 2; [2]) [nM] | Ki (memapsin 2; [3]) [nM] | SMILES | further results
16 | 9.97 | CC(C)C[C@H](NC(=O)[C@H](CS(C)(=O)=O)NC(=O)[C@@H](NC(=O)OC(C)(C)C)C(C)C)[C@@H](O)C[C@@H](C)C(=O)N[C@H](C(=O)NCc1ccccc1)C(C)C [MMI-026] | Ki (memapsin 2; [1]): 15.9 nM; Ki (memapsin 1): 44.7 nM
49 | 30.6 | CSCC[C@H](NC(=O)[C@@H](NC(=O)OC(C)(C)C)C(C)C)C(=O)N[C@@H](CC(C)C)[C@@H](O)C[C@@H](C)C(=O)N[C@@H](CC(C)C)C(=O)NCc1ccco1 [MMI-116] | % Inhibition Mep2 (memapsin 2): 56%; % Inh (M1/M2) (memapsin 2): 1.52; Vi/Vo (memapsin 2): 0.29; % Inhibition Mep1 (memapsin 1): 85%
107 | 67.1 | CSCC[C@H](NC(=O)[C@@H](NC(=O)OC(C)(C)C)C(C)C)C(=O)N[C@@H](CC(C)C)[C@@H](O)C[C@@H](CO)C(=O)N[C@H](C(=O)NCc1ccccc1)C(C)C [MMI-132] | % Inhibition Mep2 (memapsin 2): 47%; % Inh (M1/M2) (memapsin 2): 1.30; Vi/Vo (memapsin 2): 0.46; % Inhibition Mep1 (memapsin 1): 61%
3.48 | 2.18 | CSCC[C@H](NC(=O)[C@H](CC(C)C)NC(=O)OC(C)(C)C)C(=O)N[C@@H](CC(C)C)[C@@H](O)C[C@@H](C)C(=O)N[C@H](C(=O)NCC(C)C)C(C)C [MMI-134] | % Inhibition Mep2 (memapsin 2): 81%; % Inh (M1/M2) (memapsin 2): 1.21; % Inhibition Mep1 (memapsin 1): 98%
1300 | 812 | COc1cccc(C(=O)N[C@@H](CCSC)C(=O)N[C@@H](CC(C)C)[C@@H](O)C[C@@H](C)C(=O)N[C@@H](CC(C)C)C(=O)NC(C)C)c1 [MMI-209] | –
761 | 476 | CSCC[C@H](NC(=O)[C@@H](NC(=O)OC(C)(C)C)C(C)C)C(=O)N[C@@H](CC(C)C)[C@@H](O)C[C@H](C(=O)N[C@@H](C)C(=O)NCc1ccccc1)C(C)C [MMI-211] | –
19 | 11.9 | CSCC[C@H](NC(=O)C(C)Cn1nc(C)cc1C)C(=O)N[C@@H](CC(C)C)[C@@H](O)C[C@@H](C)C(=O)N[C@H](C(=O)NCc1ccco1)C(C)C (stereo partly shown) [MMI-214] | –
1420 | 889 | CSCC[C@H](NC(=O)OC(C)(C)Cn1nc(C)cc1C)C(=O)N[C@@H](CC(C)C)[C@@H](O)C[C@@H](C)C(=O)N[C@@H](CC(C)C)C(=O)NC(C)C [MMI-219] | –
41 | 25.7 | CSCC[C@H](NC(=O)C(Cn1nc(C)cc1C)C(C)C)C(=O)N[C@@H](CC(C)C)[C@@H](O)C[C@@H](C)C(=O)N[C@H](C(=O)NCc1ccco1)C(C)C (stereo partly shown) [MMI-225] | –
